In patent US7579486B2, “Metalloprotein inhibitors” (Regents of the University of California, San Diego, priority 2004, dated 2009):
Where two headings read alike, the source gives them in different places.

Experiments:
[1] = biological target: LF (Bacillus anthracis, UniProt P15917); assay: biochemical; design: species or system B. anthracis
[2] = biological target: HDAC; assay: Inhibition of histone deacetylase (HDAC); assay type: biochemical; conditions: read-out: Average IC50 against HDAC
[3] = biological target: T1, human MMP-1 catalytic domain (Homo sapiens, UniProt P03956); assay: MMP-1 fluorescent microplate assay (BIOMOL kit); assay type: biochemical; conditions: fluorescence-based assay, 1 h at 37° C. with inhibitor, pH 7.5; read-out: IC50 against MMP-1
T1 sequence (P03956 100-268): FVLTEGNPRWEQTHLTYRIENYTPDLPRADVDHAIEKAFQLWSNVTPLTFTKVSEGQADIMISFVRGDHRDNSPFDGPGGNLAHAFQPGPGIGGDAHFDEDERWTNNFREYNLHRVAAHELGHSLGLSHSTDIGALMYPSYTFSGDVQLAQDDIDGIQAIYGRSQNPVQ
Source text: (§1) Experiments were repeated at least three times.

[4] = biological target: human MMP-2 catalytic domain (Homo sapiens, UniProt P08253); assay: MMP-2 fluorescent microplate assay (BIOMOL kit); assay type: biochemical; conditions: for IC50: fluorescence-based assay, 1 h at 37° C. with inhibitor, pH 7.5, read-out: IC50 against MMP-2
human MMP-2 catalytic domain, sequence (P08253 110-452): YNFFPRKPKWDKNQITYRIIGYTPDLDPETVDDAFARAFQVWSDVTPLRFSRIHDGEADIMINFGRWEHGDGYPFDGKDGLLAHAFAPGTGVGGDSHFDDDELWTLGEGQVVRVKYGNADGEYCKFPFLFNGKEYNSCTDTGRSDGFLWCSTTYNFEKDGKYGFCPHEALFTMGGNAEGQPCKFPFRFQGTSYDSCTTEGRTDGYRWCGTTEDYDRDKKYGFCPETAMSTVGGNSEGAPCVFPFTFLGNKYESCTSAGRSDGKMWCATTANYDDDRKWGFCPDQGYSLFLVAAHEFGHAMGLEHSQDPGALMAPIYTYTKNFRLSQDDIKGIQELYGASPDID
Source text: as §1

[5] = test system: neonatal rat cardiac fibroblasts; assay: Cell invasion assay (Chemicon ECM 555); assay type: cell-based; conditions: 250 nM, 20 h
Procedure: Cell Invasion Assay. A cell invasion assay kit was purchased from Chemicon International (Cat. No. ECM 555) and the assay was performed as per kit instructions with minor modifications. Rat cardiac fibroblasts (CF) were prepared as previously described (F. J. Villarreal, N. N. Kim, G. D. Ungab, M. P. Printz, W. H. Dillmann, Circulation 1993, 88, 2849). Briefly, CF were prepared from hearts of 1-2 day old Sprague Dawley rats. Following collagenase digestions (4×), non-myocyte cells (mostly fibroblasts) were isolated by Percoll density gradient. The cell suspension was plated onto uncoated tissue culture dishes for 30 min to allow preferential attachment of CF to the bottom of the dish. The non-adherent cells were removed and fresh media (Dulbecco's modified Eagle's media +10% fetal bovine serum) was added. CF were allowed to proliferate to confluence and then trypsinized and frozen at −70° C. Stocks were freshly plated for the experiment and used from second passage. When reaching 90% confluence, cells were serum deprived for 24 h and then treated according to the experimental design (vide infra).
The CF were trypsinized once more and suspended in fresh serum-free media. Inhibitors AM-5 and AM-6 were dissolved in DMSO and diluted 10-fold in serum free media. […] Increased fluorescence indicates the presence of invaded cells. […]

[6] = read-out: Average IC50 against LF

LF, sequence (P15917 34-809 limits assumed): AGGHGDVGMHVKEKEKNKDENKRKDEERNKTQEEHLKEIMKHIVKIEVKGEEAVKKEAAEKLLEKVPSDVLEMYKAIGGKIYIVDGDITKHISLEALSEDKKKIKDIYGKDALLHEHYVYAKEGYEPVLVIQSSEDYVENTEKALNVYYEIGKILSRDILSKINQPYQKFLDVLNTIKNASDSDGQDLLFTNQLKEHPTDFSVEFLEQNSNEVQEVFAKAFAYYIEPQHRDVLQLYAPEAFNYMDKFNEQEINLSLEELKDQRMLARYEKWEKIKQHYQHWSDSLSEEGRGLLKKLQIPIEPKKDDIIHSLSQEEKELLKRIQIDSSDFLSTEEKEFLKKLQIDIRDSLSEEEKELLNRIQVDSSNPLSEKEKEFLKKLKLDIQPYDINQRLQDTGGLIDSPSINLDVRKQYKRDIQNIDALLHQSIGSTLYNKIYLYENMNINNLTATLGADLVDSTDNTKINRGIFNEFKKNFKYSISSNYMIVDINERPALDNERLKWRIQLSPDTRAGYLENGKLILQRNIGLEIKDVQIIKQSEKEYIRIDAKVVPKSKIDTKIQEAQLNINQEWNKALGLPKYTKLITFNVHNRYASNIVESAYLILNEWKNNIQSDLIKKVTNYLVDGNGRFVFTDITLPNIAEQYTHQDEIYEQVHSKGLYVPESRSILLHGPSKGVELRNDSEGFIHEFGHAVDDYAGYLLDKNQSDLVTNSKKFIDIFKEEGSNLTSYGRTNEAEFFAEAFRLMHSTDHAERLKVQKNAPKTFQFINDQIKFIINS

Row | Compound | IC50 [3] | IC50 [4] | potency against MMP-2 compared with MMP-3, in words [4] | further results
1 | On1ccccc1=S [1,2-HOPTO] |  |  |  | IC50 [1, 6]: 3900 µM; IC50 [2]: 860 µM
2 | Cc1cc(=O)c(O)c(C(=O)Nc2ccc(-c3ccccc3)cc2)o1 [AM-1, 3-Hydroxy-6-methyl-pyran-4(1H)-one-2-carboxy-N-(4-biphenylamide)] | > 50 µM | 36 µM |  | 
3 | Cc1occc(=S)c1O [Thiomaltol, thiomaltol] |  |  |  | IC50 [1]: 260 µM; IC50 [2]: 247 µM
4 | COc1ccc(CNC(=O)c2oc(C)cc(=O)c2O)cc1 [AM-4] | > 50 µM | > 50 µM | substantially less potent against MMP-2 | 
5 | O=C(NCc1ccc(-c2ccccc2)cc1)c1cccc(=O)n1O [compound 20] | > 12.5 µM | 0.9 µM |  | 
6 | Cc1cc(=O)c(O)c(C(=O)NCc2ccc(-c3ccc(C#N)cc3)cc2)o1 [AM-5, 3-Hydroxy-6-methyl-pyran-4(1H)-one-2-carboxy-N-(4-(4-cyanophenyl)benzylamide)] | > 50 µM | 0.61 µM | substantially less potent against MMP-2 | reduction of invasion of neonatal rat cardiac fibroblasts through a collagen membrane [5]: 67%
7 | Cc1cc(=O)c(O)c(C(=O)NCc2ccc(-c3ccc(-c4ccccc4)cc3)cc2)o1 [AM-6, 3-Hydroxy-6-methyl-pyran-4(1H)-one-2-carboxy-N-(4-biphenylbenzylamide)] | > 50 µM | > 50 µM | substantially less potent against MMP-2 | reduction of invasion of neonatal rat cardiac fibroblasts through a collagen membrane [5]: 55%
8 | O=C(NCCc1ccc(-c2ccccc2)cc1)c1occc(=S)c1O [PY-3S (30)] |  |  |  | IC50 [1]: 18.5 µM
9 | CC(=O)NO [AHA (N-hydroxyacetamide), N-hydroxyacetamide, reference compound] |  |  |  | IC50 [1, 6]: 11400 µM; IC50 [2]: 3200 µM
10 | Cc1cc(=O)c(O)c(C(=O)NCc2ccc(-c3ccccc3)cc2)o1 [AM-2, 3-Hydroxy-6-methyl-pyran-4(1)-one-2-carboxy-N-(4-phenylbenzylamide)] | > 50 µM | 9.3 µM | substantially less potent against MMP-2 | 
11 | Cc1cc(=O)c(O)c(C(=O)NCCc2ccc(-c3ccccc3)cc2)o1 [AM-3] | > 50 µM | 27 µM |  | 
12 | O=C(NCc1ccc(-c2ccccc2)cc1)c1occc(=S)c1O [PY-2S (27), 3-Hydroxy-4-thiopyrone-2-carboxy-N-(4-phenylbenzylamide)] |  |  |  | IC50 [1]: 38 µM
